Assay results as given in US20250002507A1, “7,8-DIHYDRO-5H-1,6-NAPHTHYRIDINE DERIVATIVES AS POSITIVE ALLOSTERIC MODULATORS OF THE MUSCARINIC ACETYLCHOLINE RECEPTOR M4 FOR TREATING NEUROLOGICAL AND PSYCHIATRIC DISORDERS” (Vanderbilt University, priority 2021, published 2025).

Target: T1, Human M4 (Homo sapiens, UniProt P08173)
T1 construct: expressed in transfected cells
T1 sequence (P08173 1-479): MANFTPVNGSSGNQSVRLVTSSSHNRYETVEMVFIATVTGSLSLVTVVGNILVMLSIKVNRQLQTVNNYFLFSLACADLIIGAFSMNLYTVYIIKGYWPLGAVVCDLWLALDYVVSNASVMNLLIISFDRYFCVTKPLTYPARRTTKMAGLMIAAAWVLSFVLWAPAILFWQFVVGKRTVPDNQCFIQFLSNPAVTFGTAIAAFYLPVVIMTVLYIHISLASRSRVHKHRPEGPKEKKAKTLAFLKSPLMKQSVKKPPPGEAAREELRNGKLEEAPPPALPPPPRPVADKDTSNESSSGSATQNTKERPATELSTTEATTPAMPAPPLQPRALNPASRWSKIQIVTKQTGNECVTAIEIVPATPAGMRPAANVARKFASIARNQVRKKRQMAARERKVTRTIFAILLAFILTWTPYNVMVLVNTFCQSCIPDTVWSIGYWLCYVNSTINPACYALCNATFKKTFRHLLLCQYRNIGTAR
Assay: mAChR M4 cell-based functional assay (calcium flux, potentiation of EC20 acetylcholine response), hM4-Gqi5 CHO-K1 cells
Conditions: for Emax at 30 µM: CHO-K1, Human M4, % ACh maximum at 30 μM, read-out: Emax (% ACh maximum at 30 μM); for Emax at 30 µM / EC50: Table 3; for EC50: potentiation of EC20 acetylcholine response, calcium flux, CHO-K1 cells, read-out: Human M4 EC50
Summary of the method: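 CHO-K1 cells stably expressing human M4 with chimeric Gqi5, loaded with Fluo-4 AM 50 min at 37 °C; calcium flux read by FDSS. 11-point 1:3 compound curves added, then EC20 acetylcholine at 144 s; potentiation of the EC20 response fitted by four-parameter logistic to give EC50 and Emax.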

Emax at 30 µM [%] | EC50 [µM] | SMILES | Emax (CHO-K1, read-out: Emax (% ACh maximum at 30 μM)) [%]
96 | 0.463 | Cc1c(N2CCc3ncc(-c4ccc(N5CC6(C5)CC(F)(F)C6)nc4)cc3C2)nn2cnnc2c1C [Compound 208, 3-(6-(6,6-difluoro-2-azaspiro[3.3]heptan-2-yl)pyridin-3-yl)-6-(7,8-dimethyl-[1,2,4]triazolo[4,3-b]pyridazin-6-yl)-5,6,7,8-tetrahydro-1,6-naphthyridine] | –
38 | 4.12 | Cc1cc(Nc2cnc3c(c2)CN(c2nn4cnnc4c(C)c2C)CC3)n(CCC(C)C)n1 [Compound 211, 6-(7,8-dimethyl-[1,2,4]triazolo[4,3-b]pyridazin-6-yl)-N-(1-isopentyl-3-methyl-1H-pyrazol-5-yl)-5,6,7,8-tetrahydro-1,6-naphthyridin-3-amine] | –
52 | 2.48 | CCCCn1nc(C)cc1Nc1cnc2c(c1)CN(c1nn3cnnc3c(C)c1C)CC2 [Compound 213, N-(1-butyl-3-methyl-1H-pyrazol-5-yl)-6-(7,8-dimethyl-[1,2,4]triazolo[4,3-b]pyridazin-6-yl)-5,6,7,8-tetrahydro-1,6-naphthyridin-3-amine] | –
45 | 5.5 | Cc1cc(Nc2cnc3c(c2)CN(c2nn4cnnc4c(C)c2C)CC3)n(C(C)C)n1 [Compound 214, 6-(7,8-dimethyl-[1,2,4]triazolo[4,3-b]pyridazin-6-yl)-N-(1-isopropyl-3-methyl-1H-pyrazol-5-yl)-5,6,7,8-tetrahydro-1,6-naphthyridin-3-amine] | –
89 | 0.186 | Cc1c(N2CCc3ncc(C(C)C)cc3C2)nn2cnnc2c1C [Compound 218, 6-(7,8-dimethyl-[1,2,4]triazolo[4,3-b]pyridazin-6-yl)-3-isopropyl-5,6,7,8-tetrahydro-1,6-naphthyridine] | –
83 | 0.088 | Cc1c(N2CCc3ncc(C4CC4)cc3C2)nn2c(C(F)(F)F)nnc2c1C [Compound 222, 3-cyclopropyl-6-(7,8-dimethyl-3-(trifluoromethyl)-[1,2,4]triazolo[4,3-b]pyridazin-6-yl)-5,6,7,8-tetrahydro-1,6-naphthyridine] | –
95 | 0.329 | Cc1c(N2CCc3ncc(-c4ccc(N5CCOCC5)cc4)cc3C2)nn2cnnc2c1C [Compound 223, 4-(4-(6-(7,8-dimethyl-[1,2,4]triazolo[4,3-b]pyridazin-6-yl)-5,6,7,8-tetrahydro-1,6-naphthyridin-3-yl)phenyl)morpholine] | –
100 | 0.581 | Cc1c(N2CCc3ncc(-c4ccc(N5CCN(C)CC5)cc4)cc3C2)nn2cnnc2c1C [Compound 224, 6-(7,8-dimethyl-[1,2,4]triazolo[4,3-b]pyridazin-6-yl)-3-(4-(4-methylpiperazin-1-yl)phenyl)-5,6,7,8-tetrahydro-1,6-naphthyridine] | –
79 | 1.78 | Cc1c(N2CCc3ncc(C(=O)Nc4ccccc4F)cc3C2)nn2c(C(F)(F)F)nnc2c1C [Compound 226, 6-(7,8-dimethyl-3-(trifluoromethyl)-[1,2,4]triazolo[4,3-b]pyridazin-6-yl)-N-(2-fluorophenyl)-5,6,7,8-tetrahydro-1,6-naphthyridine-3-carboxamide] | –

Continued, compound first:

SMILES | Emax at 30 µM [%] | EC50 [µM] | Emax (CHO-K1, read-out: Emax (% ACh maximum at 30 μM)) [%]
Cc1c(N2CCc3ncc(N4CCCn5nccc54)cc3C2)nn2cnnc2c1C [Compound 209, 3-(6,7-dihydropyrazolo[1,5-a]pyrimidin-4(5H)-yl)-6-(7,8-dimethyl-[1,2,4]triazolo[4,3-b]pyridazin-6-yl)-5,6,7,8-tetrahydro-1,6-naphthyridine] | 99 | 0.071 | –
Cc1c(N2CCc3ncc(Nc4nn(C)c5ccccc45)cc3C2)nn2cnnc2c1C [Compound 210, 6-(7,8-dimethyl-[1,2,4]triazolo[4,3-b]pyridazin-6-yl)-N-(1-methyl-1H-indazol-3-yl)-5,6,7,8-tetrahydro-1,6-naphthyridin-3-amine] | 69 | 0.9 | –
Cc1cc(Nc2cnc3c(c2)CN(c2nn4cnnc4c(C)c2C)CC3)n(CC(C)C)n1 [Compound 212, 6-(7,8-dimethyl-[1,2,4]triazolo[4,3-b]pyridazin-6-yl)-N-(1-isobutyl-3-methyl-1H-pyrazol-5-yl)-5,6,7,8-tetrahydro-1,6-naphthyridin-3-amine] | 41 | 5.41 | –
Cc1c(N2CCc3ncc(-c4ccc(N5CCC(F)(F)CC5)nc4)cc3C2)nn2cnnc2c1C [Compound 215, 3-(6-(4,4-difluoropiperidin-1-yl)pyridin-3-yl)-6-(7,8-dimethyl-[1,2,4]triazolo[4,3-b]pyridazin-6-yl)-5,6,7,8-tetrahydro-1,6-naphthyridine] | 86 | 0.351 | –
Cc1c(N2CCc3ncc(-c4ccc(N5CCCC(F)C5)nc4)cc3C2)nn2cnnc2c1C (stereo not drawn) [Compound 216, 6-(7,8-dimethyl-[1,2,4]triazolo[4,3-b]pyridazin-6-yl)-3-(6-(3-fluoropiperidin-1-yl)pyridin-3-yl)-5,6,7,8-tetrahydro-1,6-naphthyridine] | 82 | 0.224 | –
Cc1c(N2CCc3ncc(-c4ccc(N5CCC5)nc4)cc3C2)nn2cnnc2c1C [Compound 217, 3-(6-(azetidin-1-yl)pyridin-3-yl)-6-(7,8-dimethyl-[1,2,4]triazolo[4,3-b]pyridazin-6-yl)-5,6,7,8-tetrahydro-1,6-naphthyridine] | 83 | 0.223 | –
Cc1c(N2CCc3ncc(C(C)(C)O)cc3C2)nn2c(C(F)(F)F)nnc2c1C [Compound 219, 2-(6-(7,8-dimethyl-3-(trifluoromethyl)-[1,2,4]triazolo[4,3-b]pyridazin-6-yl)-5,6,7,8-tetrahydro-1,6-naphthyridin-3-yl)propan-2-ol] | 81 | 0.906 | –
Cc1c(N2CCc3ncc(O)cc3C2)nn2cnnc2c1C [Compound 220, 6-(7,8-dimethyl-[1,2,4]triazolo[4,3-b]pyridazin-6-yl)-5,6,7,8-tetrahydro-1,6-naphthyridin-3-ol] | – | 1.37 | 81
Cc1c(N2CCc3ncc(OCC(C)C)cc3C2)nn2cnnc2c1C [Compound 221, 6-(7,8-dimethyl-[1,2,4]triazolo[4,3-b]pyridazin-6-yl)-3-isobutoxy-5,6,7,8-tetrahydro-1,6-naphthyridine] | 76 | 0.588 | –
Cc1c(N2CCc3ncc(-c4ccc(N5CCC(F)(F)C5)nc4)cc3C2)nn2cnnc2c1C [Compound 225, 3-(6-(3,3-difluoropyrrolidin-1-yl)pyridin-3-yl)-6-(7,8-dimethyl-[1,2,4]triazolo[4,3-b]pyridazin-6-yl)-5,6,7,8-tetrahydro-1,6-naphthyridine] | 85 | 0.435 | –
Cc1c(N2CCc3ncc(C(=O)N4CCCC4)cc3C2)nn2c(C(F)(F)F)nnc2c1C [Compound 227, (6-(7,8-dimethyl-3-(trifluoromethyl)-[1,2,4]triazolo[4,3-b]pyridazin-6-yl)-5,6,7,8-tetrahydro-1,6-naphthyridin-3-yl)(pyrrolidin-1-yl)methanone] | 76 | 6.41 | –
Cc1c(N2CCc3ncc(C(=O)NCc4cncs4)cc3C2)nn2c(C(F)(F)F)nnc2c1C [Compound 228, 6-(7,8-dimethyl-3-(trifluoromethyl)-[1,2,4]triazolo[4,3-b]pyridazin-6-yl)-N-(thiazol-5-ylmethyl)-5,6,7,8-tetrahydro-1,6-naphthyridine-3-carboxamide] | 85 | 1.72 | –
